Laboratory results: US5385891A, “Polysulfate of β-cyclodextrin derivative and process for preparing the same” (Tanabe Seiyaku Co., Ltd., priority 1991, dated 1995)
Where a name gives a salt, the structure may show the parent alone.

Test system: HIV in MT-4 cells
Experiment: HIV Proliferation Inhibitory Activity (MT-4 cells, 10% FCS)
Type: cell-based, HIV (a culture supernatant of TALL-1/LAV-1)
Details: Human immunodeficiency virus 1, MT4, 120 h, read-out: HIV proliferation inhibitory activity, 100% inhibition concentration
Description: It is known that when MT-4 cells which are sustaining infectious cell lines of human T-cell Leukemia virus I type (HTLV-I) are infected with HIV, HIV proliferates rapidly and the MT-4 cells are killed in 5 to 6 days due to the cellular damage. Therefore, HIV proliferation inhibitory activity of a sample can be evaluated by examining the number of viable cells of the MT-4 cells infected with HIV.
MT-4 cells were infected with HIV (a culture supernatant of TALL-1/LAV-1) at 37° C. for one hour so that TCID50 (median tissue culture infectious dose)/cell might be 0.001, followed by washing with the medium. The infected MT-4 cells were then suspended at a concentration of 1×10^5 cell/ml in RPMI-1640 media (containing 10% of FCS (fetal calf serum)) containing samples of various concentrations, respectively. Each of the thus obtained cell suspension was introduced in a flat bottom culture plate in an amount of 200 μl/well and was incubated at 37° C. in the presence of 5% carbon dioxide for 5 days. After incubation, the number of viable cells in the cell suspension was counted by the Tripan-Blue Staining Method. The HIV proliferation inhibitory activity of a sample was evaluated in terms of the concentration of the sample which suppresses by 100% the infectiousness and the cell modification activity of HIV in MT-4 cells.

Molecule O=S(=O)(O)OC[C@H]1O[C@@H]2O[C@H]3[C@H](OS(=O)(=O)O)[C@@H](OCc4ccccc4)[C@@H](O[C@H]4[C@H](OS(=O)(=O)O)[C@@H](OCc5ccccc5)[C@@H](O[C@H]5[C@H](OS(=O)(=O)O)[C@@H](OCc6ccccc6)[C@@H](O[C@H]6[C@H](OS(=O)(=O)O)[C@@H](OCc7ccccc7)[C@@H](O[C@H]7[C@H](OS(=O)(=O)O)[C@@H](OCc8ccccc8)[C@@H](O[C@H]8[C@H](OS(=O)(=O)O)[C@@H](OCc9ccccc9)[C@@H](O[C@H]1[C@H](OS(=O)(=O)O)[C@H]2OCc1ccccc1)O[C@@H]8COS(=O)(=O)O)O[C@@H]7COS(=O)(=O)O)O[C@@H]6COS(=O)(=O)O)O[C@@H]5COS(=O)(=O)O)O[C@@H]4COS(=O)(=O)O)O[C@@H]3COS(=O)(=O)O [Example 1, sodium salt of heptakis(2-O-benzyl)-β-cyclodextrin polysulfate] has an IC100 of 0.98 µg/mL.

O=S(=O)(O)OC[C@H]1O[C@@H]2O[C@H]3[C@H](OS(=O)(=O)O)[C@@H](OCc4ccc(F)cc4)[C@@H](O[C@H]4[C@H](OS(=O)(=O)O)[C@@H](OCc5ccc(F)cc5)[C@@H](O[C@H]5[C@H](OS(=O)(=O)O)[C@@H](OCc6ccc(F)cc6)[C@@H](O[C@H]6[C@H](OS(=O)(=O)O)[C@@H](OCc7ccc(F)cc7)[C@@H](O[C@H]7[C@H](OS(=O)(=O)O)[C@@H](OCc8ccc(F)cc8)[C@@H](O[C@H]8[C@H](OS(=O)(=O)O)[C@@H](OCc9ccc(F)cc9)[C@@H](O[C@H]1[C@H](OS(=O)(=O)O)[C@H]2OCc1ccc(F)cc1)O[C@@H]8COS(=O)(=O)O)O[C@@H]7COS(=O)(=O)O)O[C@@H]6COS(=O)(=O)O)O[C@@H]5COS(=O)(=O)O)O[C@@H]4COS(=O)(=O)O)O[C@@H]3COS(=O)(=O)O [Example 6] gave an IC100 of 3.9 µg/mL.
